Structures are written as SMILES.

This assay has as its system Nrf2 transcriptional activity (pARE-Luc reporter) in HepG2 cells. As to the kind of experiment: In vitro Nrf2 transcriptional activity measurement by ARE-dependent reporter assay in HepG2 cell. To be noted: Homo sapiens; HepG2 cells transfected with pARE-Luc, 4 hours at 37° C.; luciferase activity of Example 1-54 or Example 17-23 at 3.75 μM defined as 100%. Type of assay: cell-based, human. An outline of the steps: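 Luminescence readout (Bright-Glo) after 4 h, 37° C compound exposure of HepG2 cells carrying the ARE-luciferase vector pGL4.37. Each well converted to % response versus reference compound at 3.75 μM, and EC50 derived from dose-response curves.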
As a reminder, the EC50 is the midpoint of the concentration-response curve. A lower EC50 goes with a more potent agent. `Cn1nnc(-c2cc(Cl)c(C(=O)N3COc4c(cccc4-c4cc(N5C6CCC5COC6)c(C(=O)O)cc4F)C3)c(Cl)c2)n1` [Compound 16-9, 4-[3-[2,6-Dichloro-4-(2-methyltetrazol-5-yl)benzoyl]-2,4-dihydro-1,3-benzoxazin-8-yl]-5-fluoro-2-(3-oxa-8-azabicyclo[3.2.1]octan-8-yl)benzoic acid] displayed an EC50 of 12 nM.

`CC(C)Sc1cc(Cl)c(C(=O)N2COc3c(cccc3-c3ccc(C(=O)O)c(N4CCOCC4)c3)C2)c(Cl)c1` [Compound 16-10, 4-[3-(2,6-Dichloro-4-propan-2-ylsulfanylbenzoyl)-2,4-dihydro-1,3-benzoxazin-8-yl]-2-morpholin-4-ylbenzoic acid] had an EC50 of 9.3 nM.

On to `COCCN1CCC(c2cc(Cl)c(C(=O)N3COc4c(cccc4-c4cc(N5CCOCC5)c(C(=O)O)cc4F)C3)c(Cl)c2)CC1` [Compound 16-11, 4-[3-[2,6-Dichloro-4-[1-(2-methoxyethyl)piperidin-4-yl]benzoyl]-2,4-dihydro-1,3-benzoxazin-8-yl]-5-fluoro-2-morpholin-4-ylbenzoic acid], for which the EC50 was found to be 7.5 nM.

For `O=C(O)c1cc(F)c(-c2cccc3c2OCN(C(=O)c2c(Cl)cc(C4COC4)cc2Cl)C3)cc1N1CCOCC1` [Compound 16-12, 4-[3-[2,6-Dichloro-4-(oxetan-3-yl)benzoyl]-2,4-dihydro-1,3-benzoxazin-8-yl]-5-fluoro-2-morpholin-4-ylbenzoic acid], the concentration for a half-maximal effect (EC50) is 9.8 nM. The EC50 values of the last two molecules are within 1.5-fold of each other.

As for `C[C@@H]1CN(C)CCN1c1cc(Cl)c(C(=O)N2COc3c(cccc3-c3cc(N(C)[C@@H]4CCOC4)c(C(=O)O)cc3F)C2)c(Cl)c1` [Compound 16-13, 4-[3-[2,6-Dichloro-4-[(2R)-2,4-dimethylpiperazin-1-yl]benzoyl]-2,4-dihydro-1,3-benzoxazin-8-yl]-5-fluoro-2-[methyl-[(3R)-oxolan-3-yl]amino]benzoic acid], the EC50 stood at 4.4 nM.

`CN(c1cc(-c2cccc3c2OCN(C(=O)c2c(Cl)cc(-c4cnn(C)c4)cc2Cl)C3)c(F)cc1C(=O)O)C1(C)COC1` [Compound 16-14, 4-[3-[2,6-Dichloro-4-(1-methylpyrazol-4-yl)benzoyl]-2,4-dihydro-1,3-benzoxazin-8-yl]-5-fluoro-2-[methyl-(3-methyloxetan-3-yl)amino]benzoic acid] displayed a concentration for a half-maximal effect (EC50) of 6.8 nM.

On to `O=C(O)c1cc(F)c(-c2cccc3c2OCN(C(=O)c2c(Cl)cc(N4CC5(COCCO5)C4)cc2Cl)C3)cc1N1C2CCC1COC2` [Compound 16-15, 4-[3-[2,6-Dichloro-4-(5,8-dioxa-2-azaspiro[3.5]nonan-2-yl)benzoyl]-2,4-dihydro-1,3-benzoxazin-8-yl]-5-fluoro-2-(3-oxa-8-azabicyclo[3.2.1]octan-8-yl)benzoic acid], for which the response was half-maximal at 3 nM (EC50).

As for `N#CC1(F)CN(c2cc(Cl)c(C(=O)N3COc4c(cccc4-c4cc(N5C6CCC5COC6)c(C(=O)O)cc4F)C3)c(Cl)c2)C1` [Compound 16-16, 4-[3-[2,6-Dichloro-4-(3-cyano-3-fluoroazetidin-1-yl)benzoyl]-2,4-dihydro-1,3-benzoxazin-8-yl]-5-fluoro-2-(3-oxa-8-azabicyclo[3.2.1]octan-8-yl)benzoic acid], the EC50 stood at 13 nM.

Consider `COCC(F)(F)CN1CC2(C1)CN(c1cc(Cl)c(C(=O)N3COc4c(cccc4-c4cc(N5C6CCC5COC6)c(C(=O)O)cc4F)C3)c(Cl)c1)C2` [Compound 16-17, 4-[3-[2,6-Dichloro-4-[6-(2,2-difluoro-3-methoxypropyl)-2,6-diazaspiro[3.3]heptan-2-yl]benzoyl]-2,4-dihydro-1,3-benzoxazin-8-yl]-5-fluoro-2-(3-oxa-8-azabicyclo[3.2.1]octan-8-yl)benzoic acid], for which the EC50 was 2.7 nM.

Take `CC[C@@H](c1cccc2c1C(=O)NN(C(=O)c1c(Cl)cc(-c3cnn(C)c3)cc1Cl)C2)[C@H](C)C(=O)O` [Compound 17-1, (2S,3R)-3-[2-[2,6-Dichloro-4-(1-methylpyrazol-4-yl)benzoyl]-4-oxo-1,3-dihydrophthalazin-5-yl]-2-methylpentanoic acid]: the concentration giving a half-maximal response (EC50) turned out to be 2.2 nM.

Molecule `CC[C@@H](c1cccc2c1CON(C(=O)c1c(Cl)cc(-c3cnn(C)c3)cc1Cl)C2)[C@H](C)C(=O)O` [Compound 17-2, (2S,3R)-3-[3-[2,6-Dichloro-4-(1-methylpyrazol-4-yl)benzoyl]-1,4-dihydro-2,3-benzoxazin-8-yl]-2-methylpentanoic acid] yielded a concentration for a half-maximal effect (EC50) of 7.7 nM.

`CC[C@@H](c1cccc2c1OCN(C(=O)c1c(Cl)cc(-c3cnn(C)c3)cc1Cl)C2)[C@H](C)C(=O)O` [Compound 17-3, (2S,3R)-3-[3-[2,6-Dichloro-4-(1-methylpyrazol-4-yl)benzoyl]-2,4-dihydro-1,3-benzoxazin-8-yl]-2-methylpentanoic acid] showed an EC50 of 9.7 nM. The EC50 values of the last two molecules are within 1.5-fold of each other.

Regarding `CC[C@H](CC(=O)O)c1cccc2c1C(=O)NN(C(=O)c1c(Cl)cc(-c3cnn(C)c3)cc1Cl)C2` [Compound 17-4, (3R)-3-[2-[2,6-Dichloro-4-(1-methylpyrazol-4-yl)benzoyl]-4-oxo-1,3-dihydrophthalazin-5-yl]pentanoic acid], the EC50 amounted to 10 nM.

Take `CC[C@@H](c1cccc2c1C(=O)NN(C(=O)c1c(Cl)cc(-c3cnn(C)c3)cc1Cl)C2)[C@@H](C)C(=O)O` [Compound 17-5, (2R,3R)-3-[2-[2,6-Dichloro-4-(1-methylpyrazol-4-yl)benzoyl]-4-oxo-1,3-dihydrophthalazin-5-yl]-2-methylpentanoic acid]: it took 17 nM to reach a half-maximal effect (EC50).

The molecule `CC[C@@H](c1cccc2c1CCN(C(=O)c1c(Cl)cc(-c3cnn(C)c3)cc1Cl)C2)[C@H](C)C(=O)O` [Compound 17-8, (2S,3R)-3-[2-[2,6-Dichloro-4-(1-methylpyrazol-4-yl)benzoyl]-3,4-dihydro-1H-isoquinolin-5-yl]-2-methylpentanoic acid] showed an EC50 of 20 nM.

`CCC(CC(=O)O)c1cccc2c1C(=O)NN(C(=O)c1c(Cl)cc(-c3cnn(C)c3)cc1Cl)C2` (stereo not drawn) [Compound 17-9, 3-[2-[2,6-Dichloro-4-(1-methylpyrazol-4-yl)benzoyl]-4-oxo-1,3-dihydrophthalazin-5-yl]pentanoic acid] displayed a concentration for a half-maximal effect (EC50) of 21 nM.

`CC[C@@H](c1cccc2c1CCN(C(=O)c1c(Br)cc(-c3cnn(C)c3)cc1Br)C2)[C@H](C)C(=O)O` [Compound 17-10, (2S,3R)-3-[2-[2,6-Dibromo-4-(1-methylpyrazol-4-yl)benzoyl]-3,4-dihydro-1H-isoquinolin-5-yl]-2-methylpentanoic acid] yielded an EC50 of 21 nM.

In turn, `Cc1c(C(CC(=O)O)c2cccc3c2CCN(C(=O)c2c(Cl)cc(-c4cnn(C)c4)cc2Cl)C3)ccc2c1nnn2C` (stereo not drawn) [Compound 17-15, 3-[2-[2,6-Dichloro-4-(1-methylpyrazol-4-yl)benzoyl]-3,4-dihydro-1H-isoquinolin-5-yl]-3-(1,4-dimethylbenzotriazol-5-yl)propanoic acid] had an EC50 of 58 nM.

In the case of `Cc1c(C(CC(=O)O)c2cccc3c2CON(C(=O)c2c(Cl)cc(-c4cnn(C)c4)cc2Cl)C3)ccc2c1nnn2C` (stereo not drawn) [Compound 17-16, 3-[3-[2,6-Dichloro-4-(1-methylpyrazol-4-yl)benzoyl]-1,4-dihydro-2,3-benzoxazin-8-yl]-3-(1,4-dimethylbenzotriazol-5-yl)propanoic acid], the EC50 turned out to be 74 nM.

`Cn1cc(-c2cc(Cl)c(C(=O)N3CCc4c(cccc4-c4ccc(C(=O)O)c(N5CCOCC5)c4)C3)c(Cl)c2)cn1` [Compound 17-18, 4-[2-[2,6-Dichloro-4-(1-methylpyrazol-4-yl)benzoyl]-3,4-dihydro-1H-isoquinolin-5-yl]-2-morpholin-4-ylbenzoic acid] showed an EC50 of 97 nM.

With `Cn1cc(-c2cc(Cl)c(C(=O)N3CSc4c(cccc4-c4ccc(C(=O)O)c(N5CCOCC5)c4)C3)c(Cl)c2)cn1` [Compound 17-21, 4-[3-[2,6-Dichloro-4-(1-methylpyrazol-4-yl)benzoyl]-2,4-dihydro-1,3-benzothiazin-8-yl]-2-morpholin-4-ylbenzoic acid], the response was half-maximal at 22 nM (EC50).

`COCCOc1cc(Cl)c(C(=O)N2CCc3c(cccc3[C@H](C)[C@H](C)C(=O)O)C2)c(Cl)c1` [Compound 17-23, (2S,3R)-3-[2-[2,6-Dichloro-4-(2-methoxyethoxy)benzoyl]-3,4-dihydro-1H-isoquinolin-5-yl]-2-methylbutanoic acid]: the EC50 came out at 110 nM.

As to `C=Cc1cc(C(=O)N2COc3c(cccc3-c3cc(N4CCOCC4)c(C(=O)O)cc3F)C2)c(Cl)cc1OC` [Compound 18-1, 4-[3-(2-Chloro-5-ethenyl-4-methoxybenzoyl)-2,4-dihydro-1,3-benzoxazin-8-yl]-5-fluoro-2-morpholin-4-ylbenzoic acid], the EC50 amounted to 4.1 nM.

`COc1cc(Cl)c(C(=O)N2COc3c(cccc3-c3cc(N4CCOCC4)c(C(=O)O)cc3F)C2)cc1C1CC1` [Compound 18-2, 4-[3-(2-Chloro-5-cyclopropyl-4-methoxybenzoyl)-2,4-dihydro-1,3-benzoxazin-8-yl]-5-fluoro-2-morpholin-4-ylbenzoic acid] had an EC50 of 5.8 nM. The EC50 values of the last two molecules are within 1.5-fold of each other.

`COc1cc(Cl)c(C(=O)N2COc3c(cccc3-c3cc(N4CCOCC4)c(C(=O)O)cc3F)C2)cc1C#N` [Compound 18-3, 4-[3-(2-Chloro-5-cyano-4-methoxybenzoyl)-2,4-dihydro-1,3-benzoxazin-8-yl]-5-fluoro-2-morpholin-4-ylbenzoic acid] yielded a 50% effective concentration (EC50) of 14 nM.

`CCc1cc(C(=O)N2COc3c(cccc3-c3cc(N4CCOCC4)c(C(=O)O)cc3F)C2)c(Cl)cc1OC` [Compound 18-4, 4-[3-(2-Chloro-5-ethyl-4-methoxybenzoyl)-2,4-dihydro-1,3-benzoxazin-8-yl]-5-fluoro-2-morpholin-4-ylbenzoic acid]: the concentration for a half-maximal effect (EC50) stood at 3.7 nM. Compared with the last molecule, the EC50 is about 3.8-fold lower.

The molecule `Cn1cc(-c2cc(Cl)c(C(=O)N3COc4c(cccc4-c4ccc(C(=O)O)c(N5CCSCC5)c4)C3)c(Cl)c2)cn1` [Compound 18-5, 4-[3-[2,6-Dichloro-4-(1-methylpyrazol-4-yl)benzoyl]-2,4-dihydro-1,3-benzoxazin-8-yl]-2-thiomorpholin-4-ylbenzoic acid] showed a half-maximal effective concentration (EC50) of 12 nM.

For the origin of these results see US20250171457A1, “NITROGEN-CONTAINING HETEROCYCLIC COMPOUND HAVING NRF2 ACTIVATION EFFECT” (CHUGAI SEIYAKU KABUSHIKI KAISHA, priority 2022, published 2025).
